System: Radical scavenging activity
Assay: Antioxidant activity assessed as DPPH radical scavenging activity after 30 mins
Assay type: functional

Row | SMILES | IC50
1 | O=C(/C=C/c1ccc(O)c(O)c1)O[C@@H]1[C@@H](O)[C@H](O)[C@@H](CO)O[C@H]1c1c(O)cc2oc3cc(O)c(O)cc3c(=O)c2c1O | 17.8 µM
2 | C[C@@H]1O[C@@H](OC[C@H]2O[C@@H](Oc3c(-c4ccc(O)c(O)c4)oc4cc(O)cc(O)c4c3=O)[C@H](O)[C@@H](O)[C@@H]2O)[C@H](O)[C@H](O)[C@H]1O [RUTIN] | 12.3 µM
3 | O=C(O[C@@H]1[C@@H](O)[C@H](O)[C@@H](CO)O[C@H]1c1c(O)cc2oc3cc(O)c(O)cc3c(=O)c2c1O)c1ccccc1 | 32.7 µM
4 | O=c1c2cc(O)c(O)cc2oc2cc(O)c([C@@H]3O[C@H](CO)[C@@H](O)[C@H](O)[C@H]3O)c(O)c12 [MANGIFERIN] | 35 µM
5 | O=C(O[C@@H]1[C@@H](O)[C@H](O)[C@@H](CO)O[C@H]1c1c(O)cc2oc3cc(O)c(O)cc3c(=O)c2c1O)c1ccc(O)cc1 [MURAXANTHONE] | 30.7 µM
6 | O=C(/C=C/c1ccc(O)cc1)O[C@@H]1[C@@H](O)[C@H](O)[C@@H](CO)O[C@H]1c1c(O)cc2oc3cc(O)c(O)cc3c(=O)c2c1O | 25.4 µM
7 | O=C(/C=C/c1ccccc1)O[C@@H]1[C@@H](O)[C@H](O)[C@@H](CO)O[C@H]1c1c(O)cc2oc3cc(O)c(O)cc3c(=O)c2c1O | 31.4 µM
